# What was measured:
# [1] = test system: vancomycin-susceptibie enterococci (Enterococcus faecium and Enterococcus faecalis); experiment: mean geometric MIC, broth micro-dilution; format: cell-based; conditions: 24-hour incubation
# [2] = test system: Entercoccus faecalis 2041; experiment: MIC, standard broth micro-dilution assay; format: cell-based
# Experimental: (§1) The formula I compounds have in vitro and in vivo activity against Gram-positive pathogenic bacteria. The MIC's were determined using a standard broth micro-dilution assay.
# [3] = test system: Entercoccus gallinarum 245; experiment: MIC, standard broth micro-dilution assay; format: cell-based
# Experimental: as §1
# Entercoccus faecalis 276 = experiment: MIC, standard broth micro-dilution assay; format: cell-based
# Experimental: as §1
# Streptococcus pneumoniae = experiment: ED50 in experimentally infected mice; format: in vivo; conditions: mice infected with Streptococcus pneumoniae, two doses
# Stapylococcus aureus = experiment: ED50 in experimentally infected mice; format: in vivo; conditions: mice infected with Stapylococcus aureus, two doses
# [4] = test system: vancomycin-resistant enterococci (Enterococcus faecium and Enterococcus faecalis); experiment: mean geometric MIC, broth micro-dilution; format: cell-based; conditions: 24-hour incubation
# [5] = test system: Staphylococcus epidermidis 270; experiment: MIC, standard broth micro-dilution assay; format: cell-based
# Experimental: (§2) The MIC's were determined using a standard broth micro-dilution assay.
# [6] = test system: Haemophilus influenzae RD; experiment: MIC, standard broth micro-dilution assay; format: cell-based
# Experimental: as §2
# [7] = test system: Staphylococcus aureus 446; experiment: MIC, standard broth micro-dilution assay; format: cell-based
# Experimental: as §2
# [8] = test system: Staphylococcus aureus 447; experiment: MIC, standard broth micro-dilution assay; format: cell-based
# Experimental: as §2
# [9] = test system: Staphylococcus haemolyticus 105; experiment: MIC, standard broth micro-dilution assay; format: cell-based
# Experimental: as §2
# [10] = test system: Staphylococcus haemolyticus 415; experiment: MIC, standard broth micro-dilution assay; format: cell-based
# Experimental: as §2
# [11] = test system: Staphylococcus aureus 491; experiment: MIC, standard broth micro-dilution assay; format: cell-based
# Experimental: as §2
# Entercoccus faecium 180 = experiment: MIC, standard broth micro-dilution assay; format: cell-based
# Experimental: as §2
# Streptococcus pyogenes = experiment: ED50 in experimentally infected mice; format: in vivo; conditions: mice infected with Streptococcus pyogenes, two doses
compound,measurement,setting,value
"CNC(CC(C)C)C(=O)NC1C(=O)NC(CC(N)=O)C(=O)NC2C(=O)NC3C(=O)NC(C(=O)NC(C(=O)O)c4cc(O)cc(O)c4-c4cc3ccc4O)C(OC3CC(C)(N)C(O)C(C)O3)c3ccc(c(Cl)c3)Oc3cc2cc(c3OC2OC(CO)C(O)C(O)C2OC2CC(C)(NCc3cccc4c([N+](=O)[O-])cccc34)C(O)C(C)O2)Oc2ccc(cc2Cl)C1O (stereo not shown) [Compound 25, 5-nitro-1-naphthylmethyl]","mean geometric MIC, Vancomycin Sensitive Strains",[1],0.22 µg/mL
same,MIC,[2],0.25 µg/mL
same,MIC,[3],≤ 0.06 µg/mL
same,MIC,Entercoccus faecalis 276,0.25 µg/mL
same,ED50,Streptococcus pneumoniae,0.088 mg/kg/2
same,ED50,Stapylococcus aureus,0.16 mg/kg/2
same,"mean geometric MIC, Vancomycin Resistant Strains",[4],4.0 µg/mL
same,MIC,[5],0.5 µg/mL
same,MIC,[6],32 µg/mL
same,MIC,[7],0.5 µg/mL
same,MIC,[8],0.25 µg/mL
same,MIC,[9],1 µg/mL
same,MIC,[10],32 µg/mL
same,MIC,[11],0.125 µg/mL
same,MIC,Entercoccus faecium 180,0.5 µg/mL
same,ED50,Streptococcus pyogenes,0.087 mg/kg/2

# — patent publication US5843889A, “Glycopeptide antibiotic derivatives” (Eli Lilly and Company, priority 1997, dated 1998)
